≈ marks a conversion by molar mass, not a printed value. Where two headings read alike, the source gives them in different places.
What was measured:
Type in all cases: cell-based
[1] = test system: Haemophilus influenzae; assay: MIC by NCCLS reference broth microdilution, 450 respiratory tract pathogens; settings: Haemophilus influenzae; for MIC90: read-out: MIC90
[2] = test system: Citrobacter freundii; assay: MIC by NCCLS broth microdilution, 1100 Japanese clinical isolates 1997-1998
[3] = test system: Enterococcus faecalis; assay: MIC by agar dilution (NCCLS), 411 isolates Buenos Aires 1998-99; settings: Enterococcus faecalis (n = 48)
[4] = test system: Gram negative anaerobic pathogens and facultative anaerobic pathogens; assay: MIC by agar dilution, Brucella HK agar with 5% laked sheep blood, anaerobic reference strains
[5] = test system: Shigella spp.; assay: MIC by NCCLS broth microdilution, 1100 Japanese clinical isolates 1997-1998; settings: Shigella spp. (n=34)
[6] = test system: Staphylococcus aureus; assay: MIC by agar dilution (NCCLS), 411 isolates Buenos Aires 1998-99; settings: for MIC90: Staphylococcus aureus
[7] = test system: Klebsiella pneumoniae; assay: MIC by NCCLS broth microdilution, 1100 Japanese clinical isolates 1997-1998; settings: Klebsiella pneumoniae (n=35)
[8] = test system: Streptococcus pneumoniae and Haemophilus influenzae; assay: MIC by broth microdilution (NCCLS), all isolates pooled
[9] = test system: Serratia marcescens; assay: MIC by NCCLS broth microdilution, 1100 Japanese clinical isolates 1997-1998; settings: Serratia marcescens (n=30)
[10] = test system: Yersinia enterocolitica; assay: MIC by agar dilution (NCCLS M7-A4), 288 enteropathogenic isolates, eight quinolones; settings: Yersinia enterocolitica (n = 22)
[11] = Haemophilus influenzae (n = 100)
[12] = S. aureus, Methicillin resistant (n = 14)
[13] = S. aureus, Methicillin susceptible (n = 66)

N[C@@H]1[C@H]2CN(c3nc4c(cc3F)c(=O)c(C(=O)O)cn4-c3ccc(F)cc3F)C[C@@H]12 [Trovafloxacin, trovafloxacin]
MIC [1, 11]: 0.0075 to 0.25 µg/mL (≈ 0.018 to 0.6 µM)
MIC50 [1, 11]: ≤ 0.00075 µg/mL
MIC90 [1, 11]: 0.06 µg/mL (≈ 0.144 µM)
MIC ([1]; β-lactamase negative (n = 80)): 0.0075 to 0.25 µg/mL (≈ 0.018 to 0.6 µM)
MIC50 ([1]; β-lactamase negative (n = 80)): ≤ 0.0075 µg/mL
MIC90 ([1]; β-lactamase negative (n = 80)): 0.015 µg/mL (≈ 0.036 µM)
MIC ([1]; β-lactamase positive (n = 20)): 0.0075 to 0.06 µg/mL (≈ 0.018 to 0.144 µM)
MIC50 ([1]; β-lactamase positive (n = 20)): ≤ 0.0075 µg/mL
MIC90 ([1]; β-lactamase positive (n = 20)): 0.06 µg/mL (≈ 0.144 µM)
MIC50 ([2]; Citrobacter freundii): 0.125 µg/mL (≈ 0.3 µM)
MIC90 ([2]; Citrobacter freundii (n=39)): 2 µg/mL (≈ 4.8 µM)
MIC Range ([2]; Citrobacter freundii (n=39)): ≤0.008 to 4 µg/mL
MIC90 [3]: 8 µg/mL (≈ 19.2 µM)
MIC Range [3]: ≤0.004 to 16 µg/mL
MIC [4]: 0.125 µg/mL (≈ 0.3 µM)
MIC ([4]; Bacteroides eggerthii, ATCC27754, Bacteroides eggerthii ATCC27754, read-out: MIC): 0.5 µg/mL (≈ 1.2 µM)
MIC ([4]; Bacteroides fragilis): 0.125 µg/mL (≈ 0.3 µM)
MIC ([4]; Bacteroides fragilis GA-I0558): 0.125 µg/mL (≈ 0.3 µM)
MIC ([4]; Bacteroides fragilis, ATCC25285): 0.125 µg/mL (≈ 0.3 µM)
MIC ([4]; Bacteroides fragilis, Bacteroides fragilis GA-I7955, read-out: MIC): 0.25 µg/mL (≈ 0.6 µM)
MIC ([4]; Bacteroides fragilis, Bacteroides fragilis GAI10150, read-out: MIC): 0.25 µg/mL (≈ 0.6 µM)
MIC ([4]; Bacteroides fragilis, Bacteroides fragilis GAI30079, read-out: MIC): 0.5 µg/mL (≈ 1.2 µM)
MIC ([4]; Bacteroides fragilis, Bacteroides fragilis GAI30144, read-out: MIC): 0.25 µg/mL (≈ 0.6 µM)
MIC ([4]; Bacteroides fragilis, NCTC10581, Bacteroides fragilis NCTC10581, read-out: MIC): 0.25 µg/mL (≈ 0.6 µM)
MIC ([4]; Bacteroides ovatus, ATCC8483, Bacteroides ovatus ATCC8483, read-out: MIC): 0.5 µg/mL (≈ 1.2 µM)
MIC ([4]; Bacteroides thetaiotaomicron, ATCC29741, Bacteroides thetaiotaomicron ATCC29741, read-out: MIC): 0.5 µg/mL (≈ 1.2 µM)
MIC ([4]; Bilophilla wadsworthia WAL7959, read-out: MIC): 0.5 µg/mL (≈ 1.2 µM)
MIC ([4]; Campylobacter gracilis, JCM8538, Campylobacter gracilis JCM8538, read-out: MIC): ≤ 0.03 µg/mL
MIC ([4]; Campylobacter ureolyticus, NCTC10941, Bacteroides ureolyticus NCTC10941, read-out: MIC): ≤ 0.03 µg/mL
MIC ([4]; Capnocytophaga ochracea, Capnocytophaga ochracea GAI5586, read-out: MIC): ≤ 0.03 µg/mL
MIC ([4]; Fusobacterium necrophorum, ATCC25286, Fusobacterium necrophorum ATCC25286, read-out: MIC): 0.25 µg/mL (≈ 0.6 µM)
MIC ([4]; Fusobacterium nucleatum, ATCC25586, Fusobacterium nucleatum ATCC25586, read-out: MIC): 0.5 µg/mL (≈ 1.2 µM)
MIC ([4]; Fusobacterium varium, ATCC8501, Fusobacterium varium ATCC8501, read-out: MIC): 4 µg/mL (≈ 9.61 µM)
MIC ([4]; Hoylesella oralis, ATCC33269, Prevotella oralis ATCC33269, read-out: MIC): 2 µg/mL (≈ 4.8 µM)
MIC ([4]; Parabacteroides distasonis, ATCC8503, Bacteroides distasonis ATCC8503, read-out: MIC): 0.5 µg/mL (≈ 1.2 µM)
MIC ([4]; Phocaeicola vulgatus, ATCC8482, Bacteroides vulgatus ATCC8482, read-out: MIC): 0.5 µg/mL (≈ 1.2 µM)
MIC ([4]; Porphylomonas gingivalis ATCC33277, read-out: MIC): ≤ 0.03 µg/mL
MIC ([4]; Porphyromonas asaccharolytica, ATCC25260): 0.125 µg/mL (≈ 0.3 µM)
MIC ([4]; Prevotella bivia, ATCC29303, Prevotella bivia ATCC29303, read-out: MIC): 2 µg/mL (≈ 4.8 µM)
MIC ([4]; Prevotella buccaeATCC33574, read-out: MIC): 0.5 µg/mL (≈ 1.2 µM)
MIC ([4]; Prevotella heparinolytica, ATCC35895): 0.125 µg/mL (≈ 0.3 µM)
MIC ([4]; Sutterella wadsworthensis, ATCC51579, Sutterella wadsworthensis ATCC51579, read-out: MIC): 0.25 µg/mL (≈ 0.6 µM)
MIC ([4]; Veillonella dispar, ATCC17748): 0.125 µg/mL (≈ 0.3 µM)
MIC ([4]; Veillonella parvula, ATCC10790, Veillonella parvula ATCC10790, read-out: MIC): 0.25 µg/mL (≈ 0.6 µM)
MIC50 [5]: ≤ 0.008 µg/mL
MIC90 [5]: 0.032 µg/mL (≈ 0.0769 µM)
MIC Range [5]: ≤0.008 to 0.032 µg/mL
Resistance (%) [6, 12]: 7%
Resistance (%) [6, 13]: 0%
MIC Range ([6]; Staphylococcus aureus (n = 80)): ≤0.004 to 8 µg/mL
MIC90 [6, 12]: 4 µg/mL (≈ 9.61 µM)
MIC90 [6, 13]: 0.06 µg/mL (≈ 0.144 µM)
MIC90 ([6]; Staphylococcus aureus (n = 80)): 2 µg/mL (≈ 4.8 µM)
MIC50 [7]: 0.032 µg/mL (≈ 0.0769 µM)
MIC Range [7]: ≤0.008 to 1 µg/mL
MIC90 ([7]; read-out: MIC90): 0.063 µg/mL (≈ 0.151 µM)
MIC90 ([8]; all (380) isolates tested (235 S. pneumoniae, 145 H. influenzae)): 0.12 µg/mL (≈ 0.288 µM)
MIC90 ([8]; all isolates tested (602)): 0.25 µg/mL (≈ 0.6 µM)
MIC90 [9]: 2 µg/mL (≈ 4.8 µM)
MIC50 ([9]; read-out: MIC50): 0.25 µg/mL (≈ 0.6 µM)
% Susceptible [10]: 100%
MIC50 [10]: 0.06 µg/mL (≈ 0.144 µM)
MIC90 [10]: 0.06 µg/mL (≈ 0.144 µM)
MIC Range [10]: ≤0.015 to 0.25 µg/mL
